From patent publication US20250084112A1, “Chemical Compounds Useful for Inhibiting Nav1.8 Voltage-Gated Sodium Channels and Treating Nav1.8 Mediated Diseases” (GlaxoSmithKline Intellectual Property Development Limited, priority 2021, published 2025) come the findings set out here.

Converted amounts (≈) assume the structure as drawn. Read-outs that look alike come from different tables or passages of the source.

In one data set the target is human Nav1.8 (Homo sapiens (Human), UniProt Q9Y5Y9). The data set is described as follows: QPatch 48 HTX electrophysiology, half inactivation state (V1/2) voltage protocol in HEK293-Nav1.8. The settings on record: HEK293-Nav1.8, QPatch V1/2 protocol, P2 current; average if more than one run. In kind it is cell-based. Here is the method:
Human embryonic kidney 293 cells (HEK293) expressing human Nav1.8, human Navβ1 and human TREK1 (HEK293-Nav1.8) were grown at 37° C., 5% CO2 in 150 cm^2 flasks. HEK293-Nav1.8 were passaged every 2-3 days into T175 cell culture flasks when confluency reached 80-90%.
Pharmacological assessment of the compounds of the invention was performed using HEK293-Nav1.8 in combination with an assay developed on the QPatch 48 HTX electrophysiological system. HEK293-Nav1.8 were prepared on the day of use by removing culture media, washing in DPBS, adding Accutase (2 ml to cover the surface, aspirate 1 ml then 1.5 min at 37° C.) followed by addition of CHO-SFM II to stop the enzyme digestion and in order to obtain a suspension of 3×10^6 cell/mL.
Compound was prepared in an extracellular solution of the following composition: NaCl (145 mM), KCl (4 mM), CaCl2 (2 mM), MgCl2 (2 mM), HEPES (1 mM), Glucose (10 mM), pH 7.4 with NaOH Osmolality 300 mOsM/L. The intracellular solution was used of the following composition: CsF (115 mM), CsCl (20 mM), NaCl (5 mM), EGTA (10 mM), HEPES (10 mM), Sucrose (20 mM), pH 7.2 with CsOH Osmolality 310 mOsm/L.
Utilizing the voltage-clamp mode in the QPatch 48 HTX system a half inactivation state voltage protocol (V1/2) was used to determine pharmacological activity of compounds of the invention at Nav1.8 ion channels. A V1/2 protocol was utilized with the following voltage steps: a holding voltage of −100 mV was established followed by a 20 ms voltage step to 0 mV (P1), followed by an inactivating voltage step at −46 mV for 8 seconds, followed by a step to −100 mV for 20 ms, before a 20 ms step to 0 mV (P2) before returning to the holding voltage of −100 mV. This voltage protocol was repeated at a frequency of 0.07 Hz., current magnitude was quantified at the P2 step throughout the recording. Inhibition of the measured current amplitude with the compounds of the invention was analyzed by fitting a 6-8 point dose-response curve allowing determination of the fifty percent inhibition concentration (IC50). Within the QPatch HTX software, P2 current was normalized according to measurements made at baseline after compound and after positive reference compound and fit to the following equation: […]
To assess current run-down over the course of the experiment vehicle-only wells were utilized and the normalized current with vehicle-only (n.IVEH) was determined. To correct the compound response for run-down, the currents were corrected according the following formula: […]
Compounds of the invention and the corresponding parent compounds (see Table 1A for structures) were tested for activity against Nav1.8 sodium channels in the above assay in one or more experimental runs and the results are shown in Table 1 below. Potency of the compounds of the invention is reported as a pIC50 value. The pIC50 value is the negative log of the IC50 value, wherein the IC50 value is the half maximal inhibitory concentration measured in molar (M). Potency of the compounds of the invention is compared to the potency of the parent compound. For compounds tested in more than one experimental run, the pIC50 value is reported as an average.

The nature of data set [1]: Kinetic solubility measurement using Charged Aerosol Detector (CAD). In kind it is physicochemical. Particulars: phosphate buffered saline (PBS) pH 7.4, aqueous buffer, PBS pH 7.4, 1 hour at room temperature, from DMSO stock. The protocol:
Kinetic solubility measurement using Charged Aerosol Detector (CAD). The aqueous kinetic solubility at pH 7.4 was determined by measuring the concentration of solute in solution after precipitation from DMSO stock solution. The DMSO stock solution was diluted 20-fold with phosphate buffered saline (PBS) pH 7.4 and the solubility of the compound was measured after 1 hour equilibration at room temperature by HPLC-CAD. Calibration standards of Ketoconazole and Primidone were prepared by serial dilutions in DMSO at concentrations ranging from 0.016 to 4.5 mg/ml to produce the calibration curve used to determine the solubility of the compounds as previously described in Max W. Robinson et al, Use of Calculated Physicochemical Properties to Enhance Quantitative Response When Using Charged Aerosol Detection, Anal. Chem., 2017, 89 (3), pp 1772-1777, which is herein incorporated by reference.

Data set [2] can be described thus: Rat IV/PO pharmacokinetic study (prodrug to parent conversion). Format: in vivo, Han Wistar rats. Here is the method:
An in vivo rat pharmacokinetic study was conducted to determine whether the prodrug compounds of the invention are converted to the respective parent compound upon administration. The rat pharmacokinetic study was conducted with a crossover design on two study days with a one-day recovery period between each study day. Three male, dual catheterized (femoral vein and carotid artery) Han Wistar rats were used for the study. Each rat was also implanted with a gastric catheter for oral dose administration. Rats were dosed at 1 mg/kg by a 60 minute intravenous (IV) infusion (femoral vein cannula), then subsequently oral dosed at 2 mg/kg via the gastric cannula, with 48 hours between dosing sessions. Dose solutions of the compound of Example 3 were prepared in 20% Cavitron/5% DMSO/75% water (IV) and in 6% Cavitron/5% DMSO/89% water (PO) without pH adjustment. The dose solutions were filtered using a 0.22 μ filter. The pH of the final dosing solutions was 6.0.
During the intravenous study leg, blood samples were collected from the carotid artery catheter at target times of 15, 30, 60 (end of infusion), 65, 75, 90, 120, 240, 360, 480, 720, and 1440 minutes following the initiation of the intravenous infusion of the compound of Example 3. During the oral study leg, blood samples were collected prior to dosing and at target times of 15, 30, 60, 90, 120, 180, 240, 360, 480, 720, and 1440 minutes following oral administration. Blood samples, 100 μL, were mixed with 100 μL phosphatase inhibitor, a 50 μL aliquot of the blood and inhibitor mixture was transferred to a non-heparinized tube and stored at approximately −80° C. until analyzed. The concentrations in the filtered dose solutions were confirmed by preparing stepwise dilutions first into 50% aqueous acetonitrile with 0.1% formic acid then into heparinized male Wistar Han blood:inhibitor to achieve determined nominal concentrations. Triplicate 50 μL aliquots were removed and were frozen and stored at approximately […] until analyzed by LC-MS/MS as described below.
LC-MS/MS was used to quantify the compound of Example 3 and the corresponding parent compound of Example 3A in the biological samples generated in the above described in vivo study. Samples were prepared by protein precipitation followed by LC-MS/MS analysis employing positive-mode ionization against a set of calibration standards for the compounds prepared in the same matrix. Pharmacokinetic parameters for the study was derived from the concentration versus time profiles. Key pharmacokinetic parameters such as AUC0-∞ (extrapolated area under the blood concentration-time curve), AUC0-t (area under the blood concentration-time curve to the last time point with quantifiable drug), Cmax (maximum concentration), Tmax (time Cmax is achieved), CL (systemic blood clearance), Vdss (steady-state volume of distribution), MRT (mean residence time), and t1/2(half-life) were determined for the compound of Example 3. The key pharmacokinetic parameters such as AUC0-∞, AUC0-t, Cmax, Tmax, MRT, and t1/2 (half-life) were determined for the parent compound Example 3A. Descriptive statistical data of pharmacokinetic parameters were calculated, including the mean and standard deviation (SD) using Microsoft Excel.
The data are shown below in Tables 3A and 3B. Data are reported as mean±SD (N=3).

Where [3] appears, read: average of multiple runs, read-out: CAD solubility (Parent Compounds).
Where [4] appears, read: average for Examples 1 and 3, one run for 2 and 4, read-out: CAD solubility (Prodrug Compounds of the Invention).
Where [5] appears, read: male, Han Wistar, whole blood, prodrug in blood, Example 3 1 mg/kg 60 minute intravenous infusion, mean±SD (N=3).

Sequence of human Nav1.8 (Q9Y5Y9 whole entry): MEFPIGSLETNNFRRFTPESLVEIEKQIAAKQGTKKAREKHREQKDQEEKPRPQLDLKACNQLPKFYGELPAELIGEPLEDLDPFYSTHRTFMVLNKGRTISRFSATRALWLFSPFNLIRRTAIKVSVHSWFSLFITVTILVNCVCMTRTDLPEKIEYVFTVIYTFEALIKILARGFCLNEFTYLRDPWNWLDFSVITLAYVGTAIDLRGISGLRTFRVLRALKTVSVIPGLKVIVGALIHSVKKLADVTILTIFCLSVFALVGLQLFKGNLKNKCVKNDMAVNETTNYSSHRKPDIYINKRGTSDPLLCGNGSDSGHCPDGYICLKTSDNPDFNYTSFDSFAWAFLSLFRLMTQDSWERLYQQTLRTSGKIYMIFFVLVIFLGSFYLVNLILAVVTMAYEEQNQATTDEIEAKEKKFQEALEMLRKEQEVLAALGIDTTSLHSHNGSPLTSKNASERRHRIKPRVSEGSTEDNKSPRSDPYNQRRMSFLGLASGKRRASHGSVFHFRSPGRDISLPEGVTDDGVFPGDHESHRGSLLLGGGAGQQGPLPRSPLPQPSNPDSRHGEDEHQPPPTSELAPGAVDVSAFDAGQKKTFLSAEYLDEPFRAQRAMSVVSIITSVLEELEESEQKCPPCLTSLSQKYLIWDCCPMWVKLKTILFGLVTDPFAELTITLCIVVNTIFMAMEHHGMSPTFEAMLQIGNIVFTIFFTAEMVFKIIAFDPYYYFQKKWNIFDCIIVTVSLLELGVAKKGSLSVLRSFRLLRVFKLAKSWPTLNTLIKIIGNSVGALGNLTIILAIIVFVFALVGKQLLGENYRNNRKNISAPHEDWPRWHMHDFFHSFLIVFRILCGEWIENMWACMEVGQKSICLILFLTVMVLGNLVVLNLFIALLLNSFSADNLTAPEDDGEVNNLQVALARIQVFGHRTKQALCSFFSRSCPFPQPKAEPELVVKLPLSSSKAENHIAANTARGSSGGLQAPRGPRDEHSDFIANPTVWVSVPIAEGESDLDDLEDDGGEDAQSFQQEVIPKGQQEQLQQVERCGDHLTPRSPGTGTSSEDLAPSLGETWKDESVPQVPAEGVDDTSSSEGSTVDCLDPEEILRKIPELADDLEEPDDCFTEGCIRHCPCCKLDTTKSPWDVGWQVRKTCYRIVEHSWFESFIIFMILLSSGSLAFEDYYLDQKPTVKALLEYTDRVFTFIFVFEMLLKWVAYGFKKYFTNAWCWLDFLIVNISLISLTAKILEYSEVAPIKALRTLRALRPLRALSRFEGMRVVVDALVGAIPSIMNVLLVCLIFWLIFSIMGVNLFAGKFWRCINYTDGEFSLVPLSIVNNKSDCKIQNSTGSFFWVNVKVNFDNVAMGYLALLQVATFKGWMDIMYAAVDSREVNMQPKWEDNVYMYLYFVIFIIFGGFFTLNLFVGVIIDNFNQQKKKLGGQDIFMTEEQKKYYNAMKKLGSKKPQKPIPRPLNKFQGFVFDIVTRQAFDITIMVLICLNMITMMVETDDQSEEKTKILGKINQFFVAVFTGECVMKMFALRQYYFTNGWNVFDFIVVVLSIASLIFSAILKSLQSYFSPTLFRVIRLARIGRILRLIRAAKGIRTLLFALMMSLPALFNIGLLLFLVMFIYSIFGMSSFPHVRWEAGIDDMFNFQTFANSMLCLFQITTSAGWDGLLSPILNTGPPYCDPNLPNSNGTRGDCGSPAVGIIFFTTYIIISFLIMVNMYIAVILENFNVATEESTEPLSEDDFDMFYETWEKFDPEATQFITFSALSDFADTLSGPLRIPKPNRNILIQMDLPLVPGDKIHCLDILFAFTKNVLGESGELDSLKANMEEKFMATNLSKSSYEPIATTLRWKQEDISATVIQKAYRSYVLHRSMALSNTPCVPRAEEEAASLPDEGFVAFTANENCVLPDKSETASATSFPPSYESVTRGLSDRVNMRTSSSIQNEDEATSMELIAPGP

As to `Cc1cc(F)ccc1N1CN(c2ccc(=O)[nH]c2C)C(=O)c2cc(C(F)(F)F)ccc21` [Parent Compound 1A, 1-(4-fluoro-2-methylphenyl)-3-(2-methyl-6-oxo-1,6-dihydropyridin-3-yl)-6-(trifluoromethyl)-2,3-dihydroquinazolin-4(1H)-one], on human Nav1.8, the “[Nav1.8] pIC50 (Parent Compounds)” value came out at 8. In addition, the solubility at 1 h in data set [1] (setting [3]) was 48 µg/mL (≈ 111 µM).
On to `Cc1cc(F)ccc1N1CN(c2ccc(=O)[nH]c2C)C(=O)c2cc(Cl)ccc21` [Parent Compound 3A, 6-chloro-1-(4-fluoro-2-methylphenyl)-3-(2-methyl-6-oxo-1,6-dihydropyridin-3-yl)-2,3-dihydroquinazolin-4(1H)-one], for which the solubility at 1 h in data set [1] (setting [3]) stood at 54 µg/mL (≈ 136 µM).
As for `Cc1cc(F)ccc1N1CN(c2ccc(=O)n(COP(=O)(O)O)c2C)C(=O)c2ccc(C(F)(F)F)cc21` [Example 2, (5-(1-(4-fluoro-2-methylphenyl)-4-oxo-7-(trifluoromethyl)-1,4-dihydroquinazolin-3(2H)-yl)-6-methyl-2-oxopyridin-1(2H)-yl)methyl dihydrogen phosphate], the “[Nav1.8] pIC50 (Compounds of the Invention)” value on human Nav1.8 is given as 6.6. The solubility at 1 h in data set [1] (setting [4]) is above 193 µg/mL.
Regarding `Cc1cc(OC(F)(F)F)ccc1N1CN(c2ccc(=O)[nH]c2C)C(=O)c2cc(C(F)(F)F)cnc21` [Parent Compound 4A, 1-(2-methyl-4-(trifluoromethoxy)phenyl)-3-(2-methyl-6-oxo-1,6-dihydropyridin-3-yl)-6-(trifluoromethyl)-2,3-dihydropyrido[2,3-d]pyrimidin-4(1H)-one], at human Nav1.8, the “[Nav1.8] pIC50 (Parent Compounds)” value came out at 7.5. Besides, the solubility at 1 h in data set [1] (setting [3]) worked out at 87 µg/mL (≈ 175 µM).
As to `Cc1cc(OC(F)(F)F)ccc1N1CN(c2ccc(=O)n(COP(=O)(O)O)c2C)C(=O)c2cc(C(F)(F)F)cnc21` [Example 4, (6-methyl-5-(1-(2-methyl-4-(trifluoromethoxy)phenyl)-4-oxo-6-(trifluoromethyl)-1,4-dihydropyrido[2,3-d]pyrimidin-3(2H)-yl)-2-oxopyridin-1(2H)-yl)methyl dihydrogen phosphate], the “[Nav1.8] pIC50 (Compounds of the Invention)” value at human Nav1.8 was found to be 6.1. The solubility at 1 h in data set [1] (setting [4]) came out at 181 µg/mL.
For `Cc1cc(F)ccc1N1CN(c2ccc(=O)n(COP(=O)(O)O)c2C)C(=O)c2cc(C(F)(F)F)ccc21` [Example 1, (5-(1-(4-Fluoro-2-methylphenyl)-4-oxo-6-(trifluoromethyl)-1,4-dihydroquinazolin-3(2H)-yl)-6-methyl-2-oxopyridin-1(2H)-yl)methyl dihydrogen phosphate] the same measures were 6.8 and above 260 µg/mL.
Take `Cc1cc(F)ccc1N1CN(c2ccc(=O)n(COP(=O)(O)O)c2C)C(=O)c2cc(Cl)ccc21` [Example 3, (5-(6-chloro-1-(4-fluoro-2-methylphenyl)-4-oxo-1,4-dihydroquinazolin-3(2H)-yl)-6-methyl-2-oxopyridin-1(2H)-yl)methyl dihydrogen phosphate]: the “[Nav1.8] pIC50 (Compounds of the Invention)” value on human Nav1.8 is 6.9. Moreover, the solubility at 1 h in data set [1] (setting [4]) came to 102 µg/mL. Further, in data set [2] (setting [5]), the AUC(0-inf) came out at 250 ± 30 ng·h/mL, the AUC(0-t) is 240 ± 40 ng·h/mL and the Cmax is 260 ± 24 ng/mL. In addition, the clearance in data set [2] (male, Han Wistar, whole blood, prodrug, systemic blood clearance, Example 3 1 mg/kg 60 minute intravenous infusion, mean±SD (N=3)) was found to be 58 ± 9 mL/min/kg. For the same compound, the “quantifiable concentrations following oral administration” value in data set [2] (prodrug in blood, Example 3 2 mg/kg oral via gastric cannula, text runs over cells r6-r10) is on record as “There were no”.
As to `Cc1cc(F)ccc1N1CN(c2ccc(=O)[nH]c2C)C(=O)c2ccc(C(F)(F)F)cc21` [Parent Compound 2A, 1-(4-fluoro-2-methylphenyl)-3-(2-methyl-6-oxo-1,6-dihydropyridin-3-yl)-7-(trifluoromethyl)-2,3-dihydroquinazolin-4(1H)-one], in data set [1] (setting [3]), the solubility at 1 h came out at 51 µg/mL (≈ 118 µM).
